Measured values published in patent US8298582B2, “Polysaccharide-based impregnated solid material with improved stability, processes for the preparation thereof and impregnating solutions used” (Hydro-Quebec, priority 2006, dated 2012).

Tests used:
[1] = Resistance to leaching, modified AWPA procedure E11-06 (5 faces protected); assay type: physicochemical
Method: This technique is based on AWPA protocol E11-06. The blocks are soaked in demineralized water at ambient temperature. Water samples are taken regularly and an analysis by ICP spectrometry is carried out (after dilution of the solution by a factor of 250) in order to evaluate the amount of boron present in the solution. The results are represented in FIGS. 5 and 5′.

Gleophyllum trabeum = assay: Soil-block culture test, AWPA protocol E10-06, on leached treated wood blocks; assay type: cell-based; conditions: after 20 weeks of exposure, red pine sapwood blocks leached one week before the test
Method: (§1) Tests for evaluating the degradation-resistance of the wood according to various treatments were carried out by following AWPA protocol E10-06. These tests were carried out using two brown rots: Postia placenta and Gleophyllum trabeum.
(§2) These two preparations are used to treat blocks of 19 mm×19 mm×19 mm of red pine sapwood by means of a partial vacuum of −65 cmHg maintained for 30 minutes. This type of solution forms a gel in the cells of the wood after a period of one hour. In order to accelerate the crosslinking process and to allow drying, the blocks are heated overnight at 60° C.
(§3) In order to validate the capacity of our treatment to retain the boron in the wood and to play its role of wood-preserving agent, the treated blocks were soaked for one week in demineralized water in order to extract all traces of non-chelated boric acid or DOT.
(§4) After drying, the blocks were subjected to the laboratory “soil-block” culture test, strictly according to AWPA protocol E10-06.

Postia placenta = assay: as above; assay type: cell-based; conditions: after 20 weeks of exposure, red pine sapwood blocks leached one week before the test
Method: as §1, §2, §3, §4

loss of boron ([1]; over a period of 8 days, red pine sapwood cubes): 67% | loss of boron ([1]; over a period of 15 days): 32%
Compound: OB(O)O [Boric acid, boric acid]
Weight loss (%) Gleophyllum trabeum (Gleophyllum trabeum): 67.5% | Weight loss (%) Gleophyllum trabeum (Gleophyllum trabeum; listed as boric acid): substantial loss | Weight loss (%) Postia placenta (Postia placenta): 67.5% | Weight loss (%) Postia placenta (Postia placenta; listed as boric acid): substantial loss
